Values of other authors in patent US20110086898A1, “PYRAZOLOOXAZOLE COMPOUND” (Eisai R&D Management Co., Ltd., priority 2009, published 2011).

Legend:
rats [1] = settings: Psychopharmacology, 150:317-324 (2000); cited from earlier work
[2] = tested on: learning disability following acute stress; settings: Behavioural Brain Research, 138: 207-213 (2003); cited from earlier work
rats [3] = settings: European Journal of Pharmacology, 492:195-201 (2004); cited from earlier work
rats [4] = settings: Psychopharmacology, 137:184-190 (1998); cited from earlier work
[5] = tested on: naltrexone-induced morphine withdrawal symptoms; settings: pretreatment; Journal of Neurochemistry, 74: 199-208 (2000); cited from earlier work
[6] = tested on: gastric emptying retardation after surgery; settings: Gastroenterology, 125:654-659 (2003); cited from earlier work
rats [7] = settings: European Journal of Neuroscience, 13:373-380 (2001); cited from earlier work
high-anxiety rats = settings: particularly in high-anxiety rats; Journal of Psychiatric Research, 36:197-208 (2002); cited from earlier work
[8] = tested on: depression, depressive symptoms, anxiety; settings: Journal of Psychiatric Research, 34:171-181 (2000); cited from earlier work
[9] = tested on: hypertension induced by intraventricular administration of CRF; settings: Brain Research, 881: 204-207 (2000); cited from earlier work
[10] = tested on: hippocampal tau phosphorylation; settings: Journal of Neuroscience, 27 (24): 6552-6562 (2007); cited from earlier work

Structure (SMILES): CCCCN(CC)c1nc(C)nc2c1c(C)cn2-c1c(C)cc(C)cc1C [CP-154526]
- recurrence of stress-elicited alcohol-seeking behavior (rats [1]): inhibits
- learning disability following acute stress [2]: inhibits
- anti-depressant and anti-anxiety actions (rats [3]): exhibits anti-depressant and anti-anxiety actions
- recurrence of stress-elicited drug (heroin, cocaine)-seeking behavior (rats [4]): inhibits
- naltrexone-induced morphine withdrawal symptoms [5]: inhibits
- gastric emptying retardation after surgery [6]: recovers

Structure (SMILES): CCCN(CCC)c1cc(C)nc2c(-c3cnc(N(C)C)cc3C)c(C)nn12 [Example R121919]
- anti-anxiety action (rats [7]): exhibits an anti-anxiety action
- stress-related sleep disorder (high-anxiety rats): inhibits
- ameliorating depression, depressive symptoms, anxiety [8]: effective

Structure (SMILES): CCCCN(CC)c1nc(C)nc2c1c(C)c(C)n2-c1c(C)cc(C)cc1C [antalarmin]
- hypertension induced by intraventricular administration of CRF [9]: inhibits
- stress-induced hippocampal tau phosphorylation [10]: inhibits
